Laboratory results published in US20110263542A1, “METHODS TO TREAT PAIN USING AN ALPHA-2 ADRENERGIC AGONIST AND AN ENDOTHELIN ANTAGONIST” (ENGOGENX, priority 2008, published 2011).
“Also recorded” adds a separate entry of the source. Structures can show the parent of a compound that is named as a salt. Where two headings read alike, the source gives them in different places.

Tests used:
[1] = cited from earlier work
[2] = cited from earlier work; remark: listed apart in the source
[3] = tested on: rats; details: for analgesic effect of agent alone (in words): clonidine 1 mg/kg ip; for effect of antagonist on clonidine induced potentiation of morphine analgesia / effect of antagonist on clonidine induced potentiation of oxycodone analgesia: idazoxan 2 mg/kg ip or yohimbine 2 mg/kg ip 15 min before clonidine 1 mg/kg ip; for effect of antagonist on clonidine induced potentiation of morphine analgesia: morphine 8 mg/kg sc
[4] = tested on: mice; assay: Tail-flick latency (antinociception) in mice
Procedure: Animals: Male Swiss Webster mice weighing 25 to 30 g (Harlan, Indianapolis, IN) were used. The animals were housed five per cage in a room with controlled ambient temperature (23±1° C.), humidity (50±10%) and twelve-hour light/dark cycle (6.00 AM to 6.00 PM). Food and water were made available ad libitu Experiments were carried out after the animals had been acclimated to this environment for at least 4 days.
Statistics: All data values are presented as mean±SEM. ANOVA followed by post-hoc test (Bonferroni's Test) were used to test differences within and between groups. A level of P<0.05 was considered significant.
Application of theiinal stimulation (focused light) to the tail of an animal provoked withdrawal of the tail by a brief vigorous movement. The reaction time of this movement was recorded as tail-flick latency by using an analgesiometer. […] A cutoff time of 10 sec was used to prevent damage to the tail. Tail flick latency values were subtracted from the basal latency and the differential values were used to calculate the area under the curve (AUC).

[5] = tested on: patients undergoing cesarean delivery; details: epidural clonidine 75 μg; cited from earlier work
[6] = Body temperature in mice; type: in vivo; details: clonidine 0.3 mg/kg with 0.5% CMC or sulfisoxazole 250, 500 or 1000 mg/kg; after 3 hours; FIG. 6B
[7] = tested on: patients, immediately after spinal fusion; details: cited from earlier work
[8] = tested on: patients having coronary artery bypass graft surgery; details: cited from earlier work

Compound: 4-amino-N-(3,4-dimethyloxazol-5-yl)-benzenesulfonamide [Sulfisoxazole]
- solubility (in words) [1]: highly soluble
- concentration in the cerebrospinal fluid (in words) ([2]; average, relative to blood): about a third of blood concentration
- excreted in urine by kidney ([2]; in 24 hours): 95%
- binding to plasma proteins (in words) ([2]; in vivo): extensively bound to plasma proteins

Compound: Cc1noc(NS(=O)(=O)c2cccc3c(N(C)C)cccc23)c1C [BMS182874, 5-(dimethylamino)-N-(3,4-dimethyl-5-isoxazolyl)-1-naphthalene sulfonamide]
- analgesic effect of agent alone (in words) ([3]; BMS182874 50 μg icv): did not produce any analgesic effect

Compound: Clc1cccc(Cl)c1NC1=NCCN1 [Clonidine, N-(2,6-dichlorophenyl)-4,5-dihydro-1H-imidazol-2-amine]
- analgesic effect of agent alone (in words) ([3]; BMS182874 50 μg icv): produced analgesia; also recorded: significant
- effect on morphine analgesia in rats treated with BMS182874 ([3]; clonidine 0.3 and 1.0 mg/kg ip, BMS182874 50 μg icv, morphine 4 mg/kg sc): increase in morphine analgesia
- effect on oxycodone analgesia in rats treated with BMS182874 ([3]; clonidine 0.3 and 1.0 mg/kg ip, BMS182874 50 μg icv, oxycodone 4 mg/kg sc): increase in oxycodone analgesia
- AUC0→240 min determined from tail flick latency ([4]; Example 3, FIG. 1B: morphine 4 mg/kg s.c., clonidine 2 mg/kg i.p. 30 min before morphine or vehicle, mean±SEM, N=6): 68.4±12.3
- AUC0→240 min of tail flick latency ([4]; Example 5 Study 2, FIG. 4: clonidine 2 mg/kg i.p., sulfisoxazole 1000 mg/kg oral, morphine 8 mg/kg s.c., mean±SEM, N=6): increase in AUC
- tail flick latency (in words) ([4]; clonidine 0.3 mg/kg i.p. plus 0.5% CMC p.o., by 6 hours): approximately the level of vehicle treated animals
- effect on duration of analgesia produced by 2 mg of morphine [5]: doubled
- body temperature, lowest value (from 37° C.) [6]: approximately 32 °C
- change in mean arterial pressure ([7]; clonidine group at T11): −26+/−2%
- mean arterial pressure ([7]; clonidine group): 74+/−2 mmHg
- morphine requirement, dose for each patient ([7]; clonidine group, placebo 10.8+/−1.2): 3.8 ± 1 mg
- pain score (visual analog scale 0-100 mm) after treatment ([7]; clonidine i.v. 5 micrograms/kg 1st h then 0.3 microgram/kg/h for 11 h, decreased from 42+/−5, mean+/−standard error): 26+/−3 mm

Compound: c1ccc2c(c1)OCC(C1=NCCN1)O2 (centres unmarked) [Idazoxan, 2-(1,4-benzodioxan-2-yl)-2-imidazoline]
- effect of antagonist on clonidine induced potentiation of morphine analgesia [3]: did not affect; also recorded: No effect
- effect of antagonist on clonidine induced potentiation of oxycodone analgesia ([3]; oxycodone 4 mg/kg sc): Blocked

Compound: CN1CC[C@]23c4c5ccc(O)c4O[C@H]2[C@@H](O)C=C[C@H]3[C@H]1C5.O=S(=O)(O)O [Morphine, 7,8-didehydro-4,5α-epoxy-17-methylmorphinan-3,6α-diol sulfate]
- morphine dosage in the first 24 h, median (25th-75th percentiles) ([8]; i.v. PCA morphine group (control)): 37 (30.5-51) mg
- morphine dosage in the first 24 h, median (25th-75th percentiles) ([8]; intrathecal morphine 4 microg/kg group, plus i.v. PCA morphine): 40.5 (15-61.5) mg

Compound: COC(=O)[C@@H]1[C@H]2C[C@H]3c4[nH]c5ccccc5c4CCN3C[C@@H]2CC[C@@H]1O [Yohimbine, 17α-hydroxy-yohimban-16α-carboxylate hydrochloride]
- effect of antagonist on clonidine induced potentiation of morphine analgesia ([3]; hydrochloride): Blocked
- effect of antagonist on clonidine induced potentiation of oxycodone analgesia ([3]; oxycodone 4 mg/kg sc, hydrochloride): Blocked
